Measurements: patent publication US20040052879A1, “Method for the extraction of pharmaceutically active products from spermatophyte plants, products thus obtained and their use in the medical field, in particular as substances with anti-tumoral activity” (priority 2000, published 2004)
≈ marks a conversion by molar mass, not a printed value. Blank lines part the entries; values can stand above or below the molecule they belong to.

Key:
[1] = system: PAR-MEL cells (malignant melanoma resisting to chemotherapeutic treatments); assay: Cell replication of PAR-MEL cells; format: cell-based
Description: (§1) During the experiments a series of cell lines originating from different types of tumors has been used. All cell lines have been grown and kept in a RPMI-1640 medium added with 10% fetal calf serum (FCS) and 1% penicillin-streptomycin. The substances according to the invention have been dissolved in dimethyl-sulfoxide (DMSO) at an initial concentration of 100 mM and added to the cell cultures in the concentrations indicated. DMSO alone has been added to control cultures. The cells placed on a microplate in a concentration of 1×10^5/ml have been incubated with various doses of each substance and for different periods of time. At the end of the treatment cell replication has been evaluated by a cellular count carried out using a Coulter Counter.

[2] = system: PAR-MEL cells (malignant melanoma resisting to chemotherapeutic treatments); assay: Cellular cycle analysis of PAR-MEL cells by flow cytometry; format: cell-based; details: after 24 h incubation
Description: The cells have been resuspended in a concentration of 1×10^6/ml and incubated for different periods of time and with various doses of each substance. At the end of the incubation period the cells have been fixed in acetone/methanol 1:4, treated with 100 KU/ml of RNase and marked with propydium iodide (50 mcg/ml). The various stages of the cellular cycle have then been analyzed by means of flow cytometry with a cytometer FACscan using a suitable statistic program. As far as the effects on the cellular cycle (FIG. 8) are concerned, after only 24 h of incubation of PAR-MEL cells with C-Res and starting from a dose of 5 mcg/ml, a significant block of the cellular cycle on G1-S/G2M level can be observed, with a consequent increase in the percentage of cells in S stage and at higher doses in G1 stage. Said block remains constant for the following hours.

[3] = system: PAR-MEL cells (malignant melanoma resisting to chemotherapeutic treatments); assay: Apoptosis of PAR-MEL cells by flow cytofluorometry (PI DNA content); format: cell-based; details: 40 mcg/ml, 72 h incubation
Description: (§2) The cells have been resuspended in a concentration of 1×10^6/ml and incubated for different periods of time and with various doses of each substance. At the end of the incubation period the cells have been fixed in acetone/methanol 1:4, treated with 100 KU/ml of RNase and marked with propydium iodide (50 mcg/ml). The cells have then been analyzed by means of flow cytofluorometry using a cytometer FACscan.

[4] = system: M14 cells (malignant melanoma); assay: Cell replication of M14 cells (Coulter Counter count); format: cell-based; details: for IC50: Homo sapiens, 72 h incubation, read-out: concentration inhibiting 50% of cell replication (CI50)
Description: as §1, with “Counter. Cells belonging to the M14 tumor line (malignant melanoma) have been incubated for various periods of time with 1.25, 2.5, 5, 10, 20, 40 and 80 mcg/ml of cis-resveratrol (C-Res), or DMSO alone as far as controls are concerned.” for “Counter.”

[5] = system: HT-29 cells (colorectal adenocarcinoma); assay: Cell mortality of HT-29 cells; format: cell-based; details: all doses (5-40 mcg/ml)
Description: (§3) The cells placed on a microplate in a concentration of 1×10^5/ml have been incubated with various doses of each substance and for different periods of time. At the end of the treatment cell mortality has been evaluated by a cellular count in trypan blue and/or by flow cytometry using a cytometer FACscan (Becton-Dickinson), determining the vitality of unfixed cells which have been marked with propydium iodide (PI). […] For all doses the peak of activity is detected after 48 hours of incubation.

[6] = system: M14 cells (malignant melanoma); assay: Cellular cycle analysis of M14 cells by flow cytometry; format: cell-based; details: for induction of cell accumulation in stage G1/S: 72 h, lowest dose (2.5 mcg/ml)
Description: The cells have been resuspended in a concentration of 1×10^6/ml and incubated for different periods of time and with various doses of each substance. At the end of the incubation period the cells have been fixed in acetone/methanol 1:4, treated with 100 KU/ml of RNase and marked with propydium iodide (50 mcg/ml). The various stages of the cellular cycle have then been analyzed by means of flow cytometry with a cytometer FACscan using a suitable statistic program. […] Indeed, after only 24 h of cell incubation with C-Res and starting from a dose of 1.25 mcg/ml, a significant block of the cellular cycle on S/G2M level can be observed, with the consequent increase of the percentage of cells in S stage. Said block remains, at higher doses, constant for the following hours.

[7] = system: PAR-MEL cells (malignant melanoma resisting to chemotherapeutic treatments); assay: Cell mortality of PAR-MEL cells; format: cell-based; details: 40 mcg/ml
Description: as §3, with “Only for” for “For all doses”, “dose” for “peak”, “40 mcg/ml the plateau” for “activity”, “reached” for “detected”, “only 24 h” for “48 hours”

[8] = system: M14 cells (malignant melanoma); assay: Apoptosis of M14 cells by flow cytofluorometry (PI DNA content); format: cell-based
Description: The cells have been resuspended in a concentration of 1×10^6/ml and incubated for different periods of time and with various doses of each substance. At the end of the incubation period the cells have been fixed in acetone/methanol 1:4, treated with 100 KU/ml of RNase and marked with propydium iodide (50 mcg/ml). The cells have then been analyzed by means of flow cytofluorometry using a cytometer FACscan. […] Said effect is indeed particularly significant starting from a dose of 20 mcg/ml and the peak of activity can be observed after 48 h. An activity having a similar course is performed by C-Res on cell mortality (FIG. 3), even though for said parameter the percentages of cells reacting to the action of the drug are extremely higher.

[9] = system: HT-29 cells (colorectal adenocarcinoma); assay: Cell growth of HT-29 cells; format: cell-based; details: until 72 hours
Description: as §1

[10] = Stability of the active agent in culture medium (HPLC/GC quantification); format: physicochemical; details: for halving time in culture medium: culture medium of ex. 10 (RPMI-1640, 10% FCS); for amount still present at the end of the test: culture medium of ex. 10, 72 h
Description: As far as resveratrols are concerned, they can be obtained with two alternative techniques, HPLC or GC. For both techniques quantification is carried out with the internal standard method. The compound we have found to be optimal is trans4-hydroxy-stilbene, commercially available.
For HPLC the reference method with reverse-phase column can be applied, with detection at 310 nm for trans isomers and at 282 for cis isomer (Mattivi F. Solid phase extraction of trans-resveratrol from wines for HPLC analysis. Zeftschrift für Lebensmittel-Untersuchung und Forschung, 1993, 196, 522-525). The instrumental conditions are the same as those described above for viniferine. The coefficient of molar extinction of both glucosides is almost the same as the one of the corresponding aglycones, so that they can be determined as such after carrying out a correction for molecular weights (Mattivi et al. Isolation, characterization, and evolution in red wine vinification of resveratrol monomers, J. Agric. Food Chem., 1995, 43, 7, 1820-1823).
If a preparation for aqueous or hydroalcoholic matrixes is necessary, the injection should be preceded by a pre-purification step on reverse-phase cartridges according to Mattivi F. Solid phase extraction of trans-resveratrol from wines for HPLC analysis. Zeitschrift für Lebensmittel-Untersuchung und Forschung, 1993, 196, 522-525. In addition to what is contained in the aforesaid document, it has been verified that the method is suitable for all monomer stilbenes, both free and glucosides, and that the eluted fraction of ethyl acetate can be dried under a mild flow of nitrogen, in case it is necessary to carry out the exchange in another solvent and/or to further reduce the limits of quantification.
Said techniques can be used for instance to control the stability of the active agent in culture mediums, and therefore to support in vitro experimental models which are going to be described in the following examples. For instance, for the culture means described in ex.
During the experiments a series of cell lines originating from different types of tumors has been used. All cell lines have been grown and kept in a RPMI-1640 medium added with 10% fetal calf serum (FCS) and 1% penicillin-streptomycin.

[11] = system: HT-29 cells (colorectal adenocarcinoma); assay: Cellular cycle analysis of HT-29 cells by flow cytometry; format: cell-based; details: only after 48 h incubation
Description: The cells have been resuspended in a concentration of 1×10^6/ml and incubated for different periods of time and with various doses of each substance. At the end of the incubation period the cells have been fixed in acetone/methanol 1:4, treated with 100 KU/ml of RNase and marked with propydium iodide (50 mcg/ml). The various stages of the cellular cycle have then been analyzed by means of flow cytometry with a cytometer FACscan using a suitable statistic program. For these cells the effects on the cellular cycle (FIG. 12) are evident only after 48 h of incubation starting from a dose of 10 mcg/ml and consist in a block of the cellular cycle on G1-S/G2M level.

[12] = system: HT-29 cells (colorectal adenocarcinoma); assay: Apoptosis of HT-29 cells by flow cytofluorometry (PI DNA content); format: cell-based; details: 5 mcg/ml, all times of incubation (24, 48, 72 h)
Description: as §2, with “FACscan. […] For all other doses an increase of the effect related to the time of incubation can be observed.” for “FACscan.”

halving time in culture medium [10]: 38 h
amount still present at the end of the test [10]: about 25%
Structure (SMILES): Oc1ccc(/C=C\c2cc(O)cc(O)c2)cc1 [C-Res, cis-resveratrol]
effect on cell replication ([1]; dose 20 and 40 mcg/ml): cytotoxic activity
effect on cell replication ([1]; dose range 5 and 10 mcg/ml): significant cytostatic activity
dose from which significant block of the cellular cycle on G1-S/G2M level is observed [2]: ≥ 5 µg/mL
cells in apoptosis [3]: 50%
IC50 [4]: 2.7 µg/mL (≈ 11.8 µM)
effect on cell growth ([4]; all tested doses (1.25-80 mcg/ml)): can inhibit cell growth
effect on cell replication ([4]; dose 40 mcg/ml): cytotoxic activity
effect on cell replication ([4]; dose range 5-20 mcg/ml): significant cytostatic activity
time of peak of activity on cell mortality [5]: 48 h
induction of cell accumulation in stage G1/S [6]: could induce cell accumulation in stage G1/S
dose from which significant block of the cellular cycle on S/G2M level is observed ([6]; after 24 h incubation): ≥ 1.25 µg/mL
time at which plateau of cell mortality is reached [7]: 24 h
dose from which increase in apoptotic cells is particularly significant [8]: ≥ 20 µg/mL
time of peak of apoptotic activity [8]: 48 h
inhibition of tumor growth ([9]; 5 and 10 mcg/ml): does not induce any significant effect
inhibition of tumor growth ([9]; 20 mcg/ml): partial
inhibition of tumor growth ([9]; 40 mcg/ml): complete
dose from which block of the cellular cycle on G1-S/G2M level is evident [11]: ≥ 10 µg/mL
apoptosis (peaks of hypodiploidy) [12]: absence of measurable peaks of hypodiploidy

halving time in culture medium [10]: 28 h
amount still present at the end of the test [10]: not present as such
Structure (SMILES): Oc1ccc(/C=C/c2cc(O)cc(O)c2)cc1 [T-Res, trans-resveratrol, reference compound]
IC50 [4]: 31.6 µg/mL (≈ 138 µM)
induction of cell accumulation in stage G1/S [6]: not
